The record followed here is PMC9294463, “Green Synthesis of Thiazolidine-2,4-dione Derivatives and Their Lipoxygenase Inhibition Activity With QSAR and Molecular Docking Studies” (Frontiers in Chemistry, 2022).

The target in this assay is T1, soybean lipoxygenase (Glycine max, UniProt P08170).
T1 construct: gene LOX1.1
T1 sequence (P08170 1-839): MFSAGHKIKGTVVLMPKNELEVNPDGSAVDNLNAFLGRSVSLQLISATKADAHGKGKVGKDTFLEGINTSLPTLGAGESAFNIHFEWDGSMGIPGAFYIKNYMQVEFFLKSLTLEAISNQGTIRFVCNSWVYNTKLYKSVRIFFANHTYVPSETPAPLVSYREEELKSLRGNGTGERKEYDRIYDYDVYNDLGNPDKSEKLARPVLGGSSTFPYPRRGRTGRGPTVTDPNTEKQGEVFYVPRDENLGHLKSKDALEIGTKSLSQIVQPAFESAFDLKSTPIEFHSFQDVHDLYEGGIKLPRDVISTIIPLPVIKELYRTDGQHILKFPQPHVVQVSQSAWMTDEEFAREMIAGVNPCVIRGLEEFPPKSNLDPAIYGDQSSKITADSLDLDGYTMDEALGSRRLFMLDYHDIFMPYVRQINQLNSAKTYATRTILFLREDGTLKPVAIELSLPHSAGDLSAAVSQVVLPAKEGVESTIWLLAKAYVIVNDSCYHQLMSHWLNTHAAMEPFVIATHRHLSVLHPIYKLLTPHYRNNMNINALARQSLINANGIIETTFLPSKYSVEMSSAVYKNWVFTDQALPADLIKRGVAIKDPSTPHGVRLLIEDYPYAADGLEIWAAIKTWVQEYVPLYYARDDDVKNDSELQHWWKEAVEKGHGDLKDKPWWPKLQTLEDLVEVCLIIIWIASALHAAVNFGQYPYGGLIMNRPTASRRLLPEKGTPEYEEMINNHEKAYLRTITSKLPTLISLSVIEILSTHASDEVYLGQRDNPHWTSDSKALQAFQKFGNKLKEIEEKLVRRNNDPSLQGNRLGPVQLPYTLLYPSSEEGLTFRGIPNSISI
Briefly: soybean lipoxygenase inhibition assay, % inhibition at […] (standard). The assay is classed as biochemical.

SMILES strings stand for the structures.

In the case of `C[C@H](Cc1ccc(O)c(O)c1)[C@@H](C)Cc1ccc(O)c(O)c1` [NDGA, nordihydroguaiaretic acid], testing at 100 µM gave an inhibition of 80.8%.
